Row | melting point [°C] | Compound
1 | 65 to 67 | CCCC1(C(=O)c2cc(F)c(N)c(Cl)c2)CCNC1 (centres unmarked)
2 | 291 to 292 | O=C(c1ccc2[nH]ncc2c1)C1(CC2CC2)CCCN1 (centres unmarked)
3 | > 300 | O=C(c1ccc2[nH]ncc2c1)C1(CC2CCCC2)CCCN1 (centres unmarked)
4 | 166 to 167 | CC(C)CC1(C(=O)c2cc(F)c(Cl)c(Cl)c2)CCNCC1
5 | 265.6 to 266.9 | CCCC1(C(=O)c2ccc(O)c(Cl)c2)CCCNC1 (centres unmarked)
6 | 252.6 to 254 | CCCC1(C(=O)c2ccc(Cl)c(Cl)c2)CCN1 (centres unmarked)
7 | 59 to 60 | CCCC1(C(=O)c2ccc(Cl)c(Cl)c2)CNC1
8 | 59.1 to 61 | COCC1(C(=O)c2ccc3[nH]ccc3c2)CCNC1 (centres unmarked)
